Experimental data reported in patent publication US7964376B2, “Chimeric proteins and their use in methods to screen for sweet taste modulators” (Givaudan SA, priority 2006, dated 2011).
Residues, ends and D or L forms follow the SMILES beside them.

What was measured:
[1] = target: T1, CSR::T1R2-b homomer (Homo sapiens, UniProt P41180+Q8TE23); assay: Fluo-4 calcium assay, transiently transfected HEK293T/Gα16-gustducin 44 cells (Example 6b); conditions: mean of six replicates; Calcium Chloride (2 mM), Sucralose (0.5 mM), perillartine (50 μM)
T1 sequence (P41180+Q8TE23 with tags, fused parts or gaps): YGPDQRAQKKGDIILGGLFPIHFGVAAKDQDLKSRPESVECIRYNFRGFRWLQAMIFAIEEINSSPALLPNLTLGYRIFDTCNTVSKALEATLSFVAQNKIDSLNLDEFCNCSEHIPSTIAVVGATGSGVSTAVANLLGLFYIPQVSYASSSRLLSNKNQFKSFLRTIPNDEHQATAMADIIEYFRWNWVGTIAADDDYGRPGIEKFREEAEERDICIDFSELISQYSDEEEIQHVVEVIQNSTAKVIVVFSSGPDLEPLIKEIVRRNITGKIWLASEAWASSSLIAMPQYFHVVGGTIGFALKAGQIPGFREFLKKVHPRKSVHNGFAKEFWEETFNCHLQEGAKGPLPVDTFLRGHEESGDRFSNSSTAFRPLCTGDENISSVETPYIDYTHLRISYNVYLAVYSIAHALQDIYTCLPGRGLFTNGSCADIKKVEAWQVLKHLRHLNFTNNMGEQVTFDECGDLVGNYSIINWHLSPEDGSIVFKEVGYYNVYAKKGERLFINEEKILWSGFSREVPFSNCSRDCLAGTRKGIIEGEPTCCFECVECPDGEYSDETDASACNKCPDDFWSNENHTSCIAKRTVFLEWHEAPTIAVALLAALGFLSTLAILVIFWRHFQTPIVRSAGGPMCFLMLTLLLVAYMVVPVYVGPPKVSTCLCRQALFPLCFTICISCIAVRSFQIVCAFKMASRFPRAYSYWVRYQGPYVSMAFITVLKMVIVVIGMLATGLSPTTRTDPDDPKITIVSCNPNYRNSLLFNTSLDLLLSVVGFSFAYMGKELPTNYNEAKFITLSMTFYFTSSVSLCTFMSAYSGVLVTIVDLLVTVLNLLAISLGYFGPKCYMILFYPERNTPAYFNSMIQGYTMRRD
Description: (§2) Fluo-4 is a fluorescent indicator for intracellular calcium and allows to determine changes in the calcium concentration, in particular an increase in response to receptor activation occurring after ligand addition.
(§3) Black, clear-bottom 96-well plates were used for all assays. They were seeded the day before with 8500 transfected cells per well and maintained at 37° C. overnight in an a growth medium appropriate for the cells used. For HEK293 cells, Dulbecco's Modified Eagle medium containing high glucose, L-glutamine, pyroxidine hydrochloride, and supplemented with 10% fetal bovine serum was used for growth and maintenance of the HEK293 cells.
(§4) After the initial 1 hour loading period, the plates were washed 5 times with 100 μl per well of reduced calcium C1 buffer using an automated plate washer (BioTek) and after washing, the plate was further incubated for 30 minutes at room temperature in the dark to allow for complete de-esterification of the Fluo-4-AM. The buffer solutions were discarded, the plate was washed 5 times with 100 μl reduced calcium C1 wash buffer and finally the cells were reconstituted in 180 μl of reduced calcium C1 wash buffer.
(§5) For assay reading, the plate was placed in a FLIPR (fluorescence imaging plate reader (FLIPR-Tetra, Molecular Devices)), and receptor activation was initiated following addition of 20 μl of a 10× concentrated ligand stock solution, which were prepared in reduced calcium C1 buffer.
(§6) Receptor activation is given in relative fluorescence units (RFU) and is defined by the following equation: Fluorescence Increase=Maximum Fluorescence−baseline fluorescence, wherein the baseline fluorescence represents the mean fluorescence calculated for the first 10 to 15 seconds prior to ligand addition.
As a negative control, mock transfected cells were exposed to the same concentration of ligand and the concentration of calcium traces not corresponding to a signal was determined.
(§7) The calcium mobilization signals obtained are increase in peak fluorescence (F) normalized to the baseline fluorescence (F0). […]

[2] = target: T2, T1R2/T1R3 sweet heterodimer (Homo sapiens, UniProt Q7RTX0+Q8TE23, C757R); assay: Fluo-4 calcium assay, transiently transfected HEK293T/Gα16-gustducin 44 cells (Examples 6a, 6b); assay type: cell-based; conditions: Example 6b; mean of six replicates; Calcium Chloride (2 mM), Sucralose (0.5 mM), perillartine (50 μM)
T2 construct: expressed in transfected cells; host or cells: HEK293T cells stably expressing Ga16-gustducin 44, transient co-transfection of pcDNA3.1 constructs
T2 sequence (Q8TE23 20-839): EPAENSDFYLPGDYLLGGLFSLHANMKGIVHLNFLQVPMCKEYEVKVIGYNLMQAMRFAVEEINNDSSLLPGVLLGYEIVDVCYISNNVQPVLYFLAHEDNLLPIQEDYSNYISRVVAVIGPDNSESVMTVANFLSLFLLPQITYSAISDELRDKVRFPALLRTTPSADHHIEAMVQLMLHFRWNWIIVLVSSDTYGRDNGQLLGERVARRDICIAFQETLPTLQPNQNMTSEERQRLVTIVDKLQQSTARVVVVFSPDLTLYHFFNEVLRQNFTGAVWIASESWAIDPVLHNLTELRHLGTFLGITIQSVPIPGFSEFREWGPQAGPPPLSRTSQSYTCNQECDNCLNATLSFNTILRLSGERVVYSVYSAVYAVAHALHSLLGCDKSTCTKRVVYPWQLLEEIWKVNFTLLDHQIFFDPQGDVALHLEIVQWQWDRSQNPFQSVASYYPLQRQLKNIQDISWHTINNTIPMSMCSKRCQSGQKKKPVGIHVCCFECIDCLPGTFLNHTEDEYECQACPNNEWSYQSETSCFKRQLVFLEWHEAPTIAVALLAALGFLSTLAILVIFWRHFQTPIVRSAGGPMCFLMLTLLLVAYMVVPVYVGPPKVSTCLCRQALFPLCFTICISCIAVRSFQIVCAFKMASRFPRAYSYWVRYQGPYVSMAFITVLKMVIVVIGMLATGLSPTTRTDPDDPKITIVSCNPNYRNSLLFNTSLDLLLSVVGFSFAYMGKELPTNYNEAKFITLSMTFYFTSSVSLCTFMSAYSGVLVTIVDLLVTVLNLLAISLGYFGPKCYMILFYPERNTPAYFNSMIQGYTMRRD
T2 sequence (Q7RTX0 21-852 C757R): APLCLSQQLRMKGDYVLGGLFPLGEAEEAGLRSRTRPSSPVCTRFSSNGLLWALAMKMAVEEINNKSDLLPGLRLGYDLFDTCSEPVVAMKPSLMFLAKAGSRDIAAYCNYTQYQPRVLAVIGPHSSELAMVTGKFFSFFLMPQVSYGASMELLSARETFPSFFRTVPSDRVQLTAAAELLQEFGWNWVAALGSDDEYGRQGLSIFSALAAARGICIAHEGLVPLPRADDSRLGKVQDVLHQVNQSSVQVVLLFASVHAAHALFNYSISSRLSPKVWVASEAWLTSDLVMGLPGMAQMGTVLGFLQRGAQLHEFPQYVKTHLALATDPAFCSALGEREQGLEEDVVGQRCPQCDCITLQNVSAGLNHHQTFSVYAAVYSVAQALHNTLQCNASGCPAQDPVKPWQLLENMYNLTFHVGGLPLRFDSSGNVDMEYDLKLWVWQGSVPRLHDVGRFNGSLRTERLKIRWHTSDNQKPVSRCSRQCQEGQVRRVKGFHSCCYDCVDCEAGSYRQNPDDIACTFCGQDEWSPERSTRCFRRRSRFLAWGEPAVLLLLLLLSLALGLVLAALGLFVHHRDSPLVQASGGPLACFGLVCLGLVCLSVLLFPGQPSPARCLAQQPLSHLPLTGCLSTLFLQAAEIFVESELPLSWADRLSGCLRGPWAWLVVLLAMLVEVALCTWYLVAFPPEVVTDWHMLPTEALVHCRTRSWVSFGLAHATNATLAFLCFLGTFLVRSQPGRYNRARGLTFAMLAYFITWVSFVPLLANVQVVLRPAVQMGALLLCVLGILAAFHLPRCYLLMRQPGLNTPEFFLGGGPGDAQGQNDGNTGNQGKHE
Text: (§1) The following ligands were used for to stimulate the transfected cells in the concentrations as indicated in brackets: […]

[3] = test system: Mock transfected HEK293T/Gα16-gustducin 44 cells; assay: Fluo-4 calcium assay, negative control mock transfection (Examples 6a, 6b); assay type: cell-based, human; conditions: mean of six replicates, Calcium Chloride (2 mM), Sucralose (0.5 mM), perillartine (50 μM); for Neg. control (mock transfection) AVG (mean ΔF/F): Example 6b; for Neg. control (mock transfection) AVG (net increase in fluorescence over baseline): Example 6a, aspartame (0.85 mM), cinnamonitrile (100 EM), cyclamate (1 mM), NDHC (0.33 mM)
Text: as §1

[4] = target: T3, hCaSR (Homo sapiens, UniProt P41180); assay: Fluo-4 calcium assay, transiently transfected HEK293T/Gα16-gustducin 44 cells (Example 6a); assay type: cell-based; conditions: for hCaSR AVG (net increase in fluorescence over baseline): mean of six replicates, Calcium Chloride (2 mM), Sucralose (0.5 mM), aspartame (0.85 mM), perillartine (50 μM), cinnamonitrile (100 EM), cyclamate (1 mM), NDHC (0.33 mM)
T3 sequence (P41180 20-1078): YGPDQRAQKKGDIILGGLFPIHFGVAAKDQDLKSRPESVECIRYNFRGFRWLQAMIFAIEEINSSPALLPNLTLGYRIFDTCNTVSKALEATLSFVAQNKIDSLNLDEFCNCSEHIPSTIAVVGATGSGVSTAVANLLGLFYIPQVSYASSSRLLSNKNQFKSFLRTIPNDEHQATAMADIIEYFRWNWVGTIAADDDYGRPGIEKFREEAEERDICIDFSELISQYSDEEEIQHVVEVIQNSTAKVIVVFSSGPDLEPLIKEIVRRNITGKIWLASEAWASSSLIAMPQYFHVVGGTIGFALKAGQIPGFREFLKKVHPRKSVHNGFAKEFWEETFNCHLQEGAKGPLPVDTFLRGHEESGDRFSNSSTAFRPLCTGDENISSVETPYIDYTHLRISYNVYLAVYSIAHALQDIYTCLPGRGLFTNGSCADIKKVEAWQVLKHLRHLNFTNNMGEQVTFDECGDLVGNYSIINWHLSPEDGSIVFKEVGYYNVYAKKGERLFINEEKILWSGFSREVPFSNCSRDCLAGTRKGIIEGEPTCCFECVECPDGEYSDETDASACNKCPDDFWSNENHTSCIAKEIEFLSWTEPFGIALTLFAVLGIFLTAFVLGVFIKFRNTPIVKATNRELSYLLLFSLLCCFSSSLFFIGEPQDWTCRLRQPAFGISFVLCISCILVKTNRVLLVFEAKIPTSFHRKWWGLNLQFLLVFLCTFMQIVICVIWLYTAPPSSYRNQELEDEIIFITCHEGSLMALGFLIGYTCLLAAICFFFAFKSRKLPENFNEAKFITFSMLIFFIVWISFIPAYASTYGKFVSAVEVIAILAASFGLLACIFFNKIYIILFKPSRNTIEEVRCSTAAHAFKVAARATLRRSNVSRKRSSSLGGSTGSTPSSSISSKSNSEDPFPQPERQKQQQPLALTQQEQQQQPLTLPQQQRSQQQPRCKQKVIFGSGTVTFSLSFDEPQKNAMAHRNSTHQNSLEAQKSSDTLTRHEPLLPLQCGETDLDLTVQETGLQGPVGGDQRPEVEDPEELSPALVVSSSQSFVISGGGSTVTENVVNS
Text: The hCaSR vector is used as positive control for a GPCR that is sensitive to calcium, as it is sensitive to calcium and the calcium binding site lies in the VFT of this receptor, which is where the VFT for the chimera is derived from.
as §1

[5] = target: T4, CSR::T1R2-b/CSR::T1R3-b chimeric heterodimer (Homo sapiens, UniProt P41180+Q7RTX0+Q8TE23); assay: Fluo-4 calcium assay, transiently transfected HEK293T/Gα16-gustducin 44 cells (Example 6b); conditions: mean of six replicates; Calcium Chloride (2 mM), Sucralose (0.5 mM), perillartine (50 μM)
T4 sequence (P41180+Q8TE23 with tags, fused parts or gaps): T1 sequence (P41180+Q8TE23 with tags, fused parts or gaps)
T4 sequence (P41180+Q7RTX0 with tags, fused parts or gaps): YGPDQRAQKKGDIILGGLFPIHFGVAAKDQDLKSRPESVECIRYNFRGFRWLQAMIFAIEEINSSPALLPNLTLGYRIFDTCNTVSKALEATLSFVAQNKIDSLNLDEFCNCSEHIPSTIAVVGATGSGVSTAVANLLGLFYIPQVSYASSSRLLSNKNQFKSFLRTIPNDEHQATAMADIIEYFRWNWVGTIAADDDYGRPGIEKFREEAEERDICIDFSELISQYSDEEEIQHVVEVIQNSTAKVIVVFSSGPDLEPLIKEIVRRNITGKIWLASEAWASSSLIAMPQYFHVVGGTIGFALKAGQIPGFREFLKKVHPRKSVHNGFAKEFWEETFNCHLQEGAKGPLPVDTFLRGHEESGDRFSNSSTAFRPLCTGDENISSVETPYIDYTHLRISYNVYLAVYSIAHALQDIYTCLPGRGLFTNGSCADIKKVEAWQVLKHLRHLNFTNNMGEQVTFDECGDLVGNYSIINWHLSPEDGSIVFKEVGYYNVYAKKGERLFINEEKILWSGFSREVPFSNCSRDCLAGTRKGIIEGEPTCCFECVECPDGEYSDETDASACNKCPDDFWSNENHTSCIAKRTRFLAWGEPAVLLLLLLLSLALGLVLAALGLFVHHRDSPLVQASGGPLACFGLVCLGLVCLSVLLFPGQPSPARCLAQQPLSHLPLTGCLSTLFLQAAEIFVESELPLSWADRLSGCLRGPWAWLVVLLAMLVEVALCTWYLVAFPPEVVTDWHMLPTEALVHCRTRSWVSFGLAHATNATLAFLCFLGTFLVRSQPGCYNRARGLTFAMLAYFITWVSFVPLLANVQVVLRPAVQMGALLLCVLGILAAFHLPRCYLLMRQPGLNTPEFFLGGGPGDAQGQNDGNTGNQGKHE
Description: as §2, §3, §4, §5, §6
As a negative control, mock transfected cells were exposed to the same concentration of ligand and the concentration of calcium traces not corresponding to a signal was determined. […]
as §7

Compound | CSR::R2-b alone AVG (mean ΔF/F) [1] | T1R2/T1R3 AVG (mean ΔF/F) [2] | Neg. control (mock transfection) AVG (mean ΔF/F) [3] | hCaSR AVG (net increase in fluorescence over baseline) [4] [RFU] | CSR::T1R2-b/CSR::T1R3-b AVG (mean ΔF/F) [5] | Neg. control (mock transfection) AVG (net increase in fluorescence over baseline) [3] [RFU] | response of hCaSR (in words) ([4]; Example 6a)
OC[C@H]1O[C@H](O[C@]2(CCl)O[C@H](CCl)[C@@H](O)[C@@H]2O)[C@H](O)[C@@H](O)[C@H]1Cl [Sucralose] | 0.016 ΔF/F | 0.12 ΔF/F | 0.03 ΔF/F | 22 | 0.017 ΔF/F | – | –
COC(=O)[C@H](Cc1ccccc1)NC(=O)[C@@H](N)CC(=O)O [Aspartame] (H-Asp-Phe-OMe) | – | – | – | 41 | – | −125 | –
[Ca+2].[Cl-].[Cl-] [Calcium, Calcium Chloride] | 0.424 ΔF/F | 0.19 ΔF/F | 0.20 ΔF/F | 7610 | 0.46 ΔF/F | 1570 | responded
N#CC=Cc1ccccc1 [Cinnamonitrile] | – | – | – | 197 | – | – | –
C=C(C)[C@@H]1CC=C(/C=N/O)CC1 [Perillartine] | 0.11 ΔF/F | 0.5 ΔF/F | 0.06 ΔF/F | 73 | 0.169 ΔF/F | −379 | –
